Results from ChEMBL document CHEMBL4507319 (2021).

Key:
[1] = biological target: Phosphatidylinositol 4,5-bisphosphate 3-kinase catalytic subunit beta isoform (Homo sapiens) (UniProt P42338); details: Compound concentration 1000.0 nM
[2] = biological target: T1, Tyrosine-protein kinase ZAP-70 (Homo sapiens) (UniProt P43403); details: Compound concentration 1000.0 nM
T1 sequence (whole entry): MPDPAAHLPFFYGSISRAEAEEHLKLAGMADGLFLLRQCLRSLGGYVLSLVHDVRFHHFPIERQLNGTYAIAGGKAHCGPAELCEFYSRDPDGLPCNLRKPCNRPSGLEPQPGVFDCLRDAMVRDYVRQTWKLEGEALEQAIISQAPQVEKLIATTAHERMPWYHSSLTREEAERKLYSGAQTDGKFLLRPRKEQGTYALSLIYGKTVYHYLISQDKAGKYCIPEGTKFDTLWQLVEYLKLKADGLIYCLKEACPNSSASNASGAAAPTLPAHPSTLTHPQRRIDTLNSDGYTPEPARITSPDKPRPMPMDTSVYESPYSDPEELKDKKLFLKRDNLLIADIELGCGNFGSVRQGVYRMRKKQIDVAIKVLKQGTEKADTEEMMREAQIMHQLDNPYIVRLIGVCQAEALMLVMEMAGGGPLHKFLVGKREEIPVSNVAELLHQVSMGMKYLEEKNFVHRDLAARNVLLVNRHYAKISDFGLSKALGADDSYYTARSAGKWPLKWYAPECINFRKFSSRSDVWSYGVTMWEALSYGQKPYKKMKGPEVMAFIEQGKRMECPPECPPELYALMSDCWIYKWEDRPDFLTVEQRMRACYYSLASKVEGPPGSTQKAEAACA

[3] = biological target: Mitogen-activated protein kinase kinase kinase kinase 2 (Homo sapiens) (UniProt Q12851); details: Compound concentration 1000.0 nM
[4] = biological target: TRAF2 and NCK-interacting protein kinase (Homo sapiens) (UniProt Q9UKE5); details: Compound concentration 1000.0 nM
[5] = biological target: Cyclin-dependent kinase 4 (Homo sapiens) (UniProt P11802); details: Compound concentration 1000.0 nM
[6] = biological target: Rho-associated protein kinase 2 (Homo sapiens) (UniProt O75116); details: Compound concentration 1000.0 nM
[7] = tested on: Hepatocyte growth factor receptor (Homo sapiens), P08581 [M1250T]; details: Compound concentration 1000.0 nM
[8] = biological target: Dual specificity mitogen-activated protein kinase kinase 1 (Homo sapiens) (UniProt Q02750); details: Compound concentration 1000.0 nM
[9] = biological target: Interferon-induced, double-stranded RNA-activated protein kinase (Homo sapiens) (UniProt P19525); details: Compound concentration 1000.0 nM
[10] = biological target: Tyrosine-protein kinase ABL1 (Homo sapiens) (UniProt P00519); details: Compound concentration 1000.0 nM
[11] = biological target: Serine/threonine-protein kinase WNK3 (Homo sapiens) (UniProt Q9BYP7); details: Compound concentration 1000.0 nM
[12] = biological target: Kappa-type opioid receptor (Homo sapiens) (UniProt P41145); details: Compound concentration 10.0 uM
[13] = biological target: Tyrosine-protein kinase Fgr (Homo sapiens) (UniProt P09769); details: Compound concentration 1000.0 nM
[14] = biological target: T2, Tyrosine-protein kinase TXK (Homo sapiens) (UniProt P42681); details: Compound concentration 1000.0 nM
T2 sequence (whole entry): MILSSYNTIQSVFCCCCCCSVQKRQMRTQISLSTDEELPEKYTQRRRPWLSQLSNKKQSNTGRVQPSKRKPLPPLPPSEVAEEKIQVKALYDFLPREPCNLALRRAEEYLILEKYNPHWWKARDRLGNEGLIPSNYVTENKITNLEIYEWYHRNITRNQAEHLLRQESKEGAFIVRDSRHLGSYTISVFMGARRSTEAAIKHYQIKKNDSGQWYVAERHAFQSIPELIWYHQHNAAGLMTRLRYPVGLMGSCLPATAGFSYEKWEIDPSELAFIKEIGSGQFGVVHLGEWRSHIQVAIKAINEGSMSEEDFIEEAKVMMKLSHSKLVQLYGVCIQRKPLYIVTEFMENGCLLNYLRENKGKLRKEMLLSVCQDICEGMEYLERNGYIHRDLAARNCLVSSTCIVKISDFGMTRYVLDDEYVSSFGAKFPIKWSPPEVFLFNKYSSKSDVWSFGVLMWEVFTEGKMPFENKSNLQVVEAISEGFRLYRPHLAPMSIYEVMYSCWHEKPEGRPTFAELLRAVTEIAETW

[15] = tested on: Mast/stem cell growth factor receptor Kit (Homo sapiens), P10721 [D816V]; details: Compound concentration 1000.0 nM
[16] = biological target: Protein kinase C iota type (Homo sapiens) (UniProt P41743); details: Compound concentration 1000.0 nM
[17] = biological target: Protein-tyrosine kinase 2-beta (Homo sapiens) (UniProt Q14289); details: Compound concentration 1000.0 nM
[18] = biological target: Calcium/calmodulin-dependent protein kinase type II subunit beta (Homo sapiens) (UniProt Q13554); details: Compound concentration 1000.0 nM
[19] = biological target: Serine/threonine-protein kinase RIO2 (Homo sapiens) (UniProt Q9BVS4); details: Compound concentration 1000.0 nM
[20] = biological target: Serine/threonine-protein kinase 33 (Homo sapiens) (UniProt Q9BYT3); details: Compound concentration 1000.0 nM
[21] = biological target: Mitogen-activated protein kinase kinase kinase 20 (Homo sapiens) (UniProt Q9NYL2); details: Compound concentration 1000.0 nM
[22] = biological target: Mitogen-activated protein kinase kinase kinase 14 (Homo sapiens) (UniProt Q99558); details: Compound concentration 1000.0 nM
[23] = biological target: Mast/stem cell growth factor receptor Kit (Homo sapiens) (UniProt P10721); details: Compound concentration 1000.0 nM
[24] = biological target: Cyclin-dependent kinase 5 (Homo sapiens) (UniProt Q00535); details: Compound concentration 1000.0 nM
[25] = biological target: Proto-oncogene tyrosine-protein kinase ROS (Homo sapiens) (UniProt P08922); details: Compound concentration 1000.0 nM
[26] = tested on: Epidermal growth factor receptor (Homo sapiens), P00533 [G719S]; details: Compound concentration 1000.0 nM

Rho-associated protein kinase 2 (Homo sapiens), sequence (O75116 whole entry, looked up): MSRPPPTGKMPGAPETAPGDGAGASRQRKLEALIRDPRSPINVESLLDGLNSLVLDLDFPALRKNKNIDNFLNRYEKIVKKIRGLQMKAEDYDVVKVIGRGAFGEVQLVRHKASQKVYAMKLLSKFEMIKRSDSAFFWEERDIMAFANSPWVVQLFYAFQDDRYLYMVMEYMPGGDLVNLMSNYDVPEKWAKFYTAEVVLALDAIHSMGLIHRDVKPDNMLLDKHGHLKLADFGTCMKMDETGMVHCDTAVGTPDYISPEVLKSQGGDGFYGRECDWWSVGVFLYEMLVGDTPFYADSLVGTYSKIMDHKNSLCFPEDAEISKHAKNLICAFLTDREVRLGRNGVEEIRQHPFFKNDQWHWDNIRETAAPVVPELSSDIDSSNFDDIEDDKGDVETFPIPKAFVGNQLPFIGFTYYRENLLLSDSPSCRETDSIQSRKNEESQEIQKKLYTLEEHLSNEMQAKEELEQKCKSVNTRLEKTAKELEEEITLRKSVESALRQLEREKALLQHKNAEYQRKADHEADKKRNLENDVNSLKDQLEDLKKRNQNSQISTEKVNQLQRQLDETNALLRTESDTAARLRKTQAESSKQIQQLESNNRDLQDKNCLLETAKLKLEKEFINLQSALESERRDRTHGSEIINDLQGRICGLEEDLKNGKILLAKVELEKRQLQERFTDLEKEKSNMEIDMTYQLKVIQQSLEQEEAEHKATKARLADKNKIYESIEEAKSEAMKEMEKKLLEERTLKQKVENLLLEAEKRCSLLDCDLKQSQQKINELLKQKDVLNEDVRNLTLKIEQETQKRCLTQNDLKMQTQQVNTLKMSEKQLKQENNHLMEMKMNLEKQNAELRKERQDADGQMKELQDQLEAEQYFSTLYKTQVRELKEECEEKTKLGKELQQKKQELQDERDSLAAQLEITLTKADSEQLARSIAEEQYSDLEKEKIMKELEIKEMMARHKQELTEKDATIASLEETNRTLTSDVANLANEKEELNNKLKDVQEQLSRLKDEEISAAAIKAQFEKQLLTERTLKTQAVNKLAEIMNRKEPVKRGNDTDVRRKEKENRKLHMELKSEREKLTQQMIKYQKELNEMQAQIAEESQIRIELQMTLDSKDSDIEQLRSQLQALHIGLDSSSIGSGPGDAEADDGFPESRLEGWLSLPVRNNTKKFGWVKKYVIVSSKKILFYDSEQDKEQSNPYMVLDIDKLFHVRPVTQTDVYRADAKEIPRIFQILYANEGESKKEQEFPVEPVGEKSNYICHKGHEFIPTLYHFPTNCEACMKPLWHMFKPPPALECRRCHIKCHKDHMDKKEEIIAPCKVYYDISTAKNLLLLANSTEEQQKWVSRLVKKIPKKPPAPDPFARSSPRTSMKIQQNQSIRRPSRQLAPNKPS
Protein kinase C iota type (Homo sapiens), sequence (P41743 whole entry): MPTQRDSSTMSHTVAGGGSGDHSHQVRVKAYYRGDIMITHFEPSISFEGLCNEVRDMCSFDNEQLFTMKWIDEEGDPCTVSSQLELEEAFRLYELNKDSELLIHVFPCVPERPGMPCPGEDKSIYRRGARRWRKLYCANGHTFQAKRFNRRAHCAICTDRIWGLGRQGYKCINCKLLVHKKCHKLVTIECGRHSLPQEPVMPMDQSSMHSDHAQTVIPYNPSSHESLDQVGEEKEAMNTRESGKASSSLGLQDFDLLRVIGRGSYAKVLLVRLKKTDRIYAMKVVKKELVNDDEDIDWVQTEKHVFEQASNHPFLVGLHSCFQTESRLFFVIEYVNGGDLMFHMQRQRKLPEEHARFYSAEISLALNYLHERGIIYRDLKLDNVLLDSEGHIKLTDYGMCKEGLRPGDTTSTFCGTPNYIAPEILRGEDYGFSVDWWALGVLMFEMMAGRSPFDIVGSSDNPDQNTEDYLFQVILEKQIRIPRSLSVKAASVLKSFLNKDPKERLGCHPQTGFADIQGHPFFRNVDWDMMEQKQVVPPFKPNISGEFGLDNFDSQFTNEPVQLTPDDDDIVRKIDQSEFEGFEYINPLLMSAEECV
Mast/stem cell growth factor receptor Kit (Homo sapiens), P10721 [D816V], sequence (P10721 whole entry D816V): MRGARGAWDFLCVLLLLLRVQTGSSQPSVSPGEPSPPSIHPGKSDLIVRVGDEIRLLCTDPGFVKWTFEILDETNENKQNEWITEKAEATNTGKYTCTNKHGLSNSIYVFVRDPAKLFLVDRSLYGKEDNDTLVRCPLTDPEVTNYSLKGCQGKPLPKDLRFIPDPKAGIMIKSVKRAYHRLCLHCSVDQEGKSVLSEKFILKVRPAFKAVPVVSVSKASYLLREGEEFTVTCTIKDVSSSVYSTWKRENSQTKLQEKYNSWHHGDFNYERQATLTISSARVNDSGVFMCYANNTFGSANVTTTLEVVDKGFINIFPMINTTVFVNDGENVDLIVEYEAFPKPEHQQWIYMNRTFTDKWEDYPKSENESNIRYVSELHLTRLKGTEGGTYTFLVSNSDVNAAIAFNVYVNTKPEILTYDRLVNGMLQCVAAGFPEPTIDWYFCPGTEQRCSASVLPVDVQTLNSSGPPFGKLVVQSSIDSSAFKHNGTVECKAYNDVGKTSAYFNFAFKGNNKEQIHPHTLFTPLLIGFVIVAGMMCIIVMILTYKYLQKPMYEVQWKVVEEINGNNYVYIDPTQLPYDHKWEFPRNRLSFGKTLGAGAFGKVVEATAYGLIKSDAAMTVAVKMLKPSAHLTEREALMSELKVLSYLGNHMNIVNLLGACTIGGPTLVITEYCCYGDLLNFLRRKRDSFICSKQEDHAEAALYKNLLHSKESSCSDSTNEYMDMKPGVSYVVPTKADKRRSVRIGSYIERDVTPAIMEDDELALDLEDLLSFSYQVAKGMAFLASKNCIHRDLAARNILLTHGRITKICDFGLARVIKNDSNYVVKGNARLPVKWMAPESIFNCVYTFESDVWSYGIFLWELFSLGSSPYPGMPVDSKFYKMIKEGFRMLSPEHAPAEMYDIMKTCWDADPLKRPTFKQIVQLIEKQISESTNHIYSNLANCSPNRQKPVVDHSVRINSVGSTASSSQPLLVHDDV
Protein-tyrosine kinase 2-beta (Homo sapiens), sequence (Q14289 whole entry, looked up): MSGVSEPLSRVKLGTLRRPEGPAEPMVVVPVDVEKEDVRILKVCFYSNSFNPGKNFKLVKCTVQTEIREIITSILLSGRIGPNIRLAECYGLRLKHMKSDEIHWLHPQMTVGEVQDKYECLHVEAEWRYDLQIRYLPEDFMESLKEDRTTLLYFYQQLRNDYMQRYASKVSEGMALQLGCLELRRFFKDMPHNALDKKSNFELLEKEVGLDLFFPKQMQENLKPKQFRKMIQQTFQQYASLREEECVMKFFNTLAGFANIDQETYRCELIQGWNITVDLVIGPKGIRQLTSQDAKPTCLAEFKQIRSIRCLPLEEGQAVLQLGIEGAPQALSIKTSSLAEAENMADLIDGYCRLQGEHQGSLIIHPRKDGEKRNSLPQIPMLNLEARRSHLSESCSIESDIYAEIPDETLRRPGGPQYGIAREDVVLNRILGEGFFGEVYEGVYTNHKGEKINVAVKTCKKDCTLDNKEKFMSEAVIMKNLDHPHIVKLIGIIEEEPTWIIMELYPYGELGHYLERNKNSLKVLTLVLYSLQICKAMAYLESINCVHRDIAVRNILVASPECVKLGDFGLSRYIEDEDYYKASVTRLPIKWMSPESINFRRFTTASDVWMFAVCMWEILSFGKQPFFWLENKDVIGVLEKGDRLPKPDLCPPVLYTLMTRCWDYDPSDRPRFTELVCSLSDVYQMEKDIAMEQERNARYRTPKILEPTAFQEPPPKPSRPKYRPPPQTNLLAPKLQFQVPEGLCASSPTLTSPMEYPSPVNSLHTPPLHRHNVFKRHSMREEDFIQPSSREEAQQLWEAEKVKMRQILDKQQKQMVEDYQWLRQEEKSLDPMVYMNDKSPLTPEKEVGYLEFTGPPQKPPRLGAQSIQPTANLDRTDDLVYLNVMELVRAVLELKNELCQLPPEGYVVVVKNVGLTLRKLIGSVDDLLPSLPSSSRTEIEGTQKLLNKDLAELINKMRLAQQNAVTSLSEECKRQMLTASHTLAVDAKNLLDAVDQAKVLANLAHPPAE
Serine/threonine-protein kinase RIO2 (Homo sapiens), sequence (Q9BVS4 whole entry, looked up): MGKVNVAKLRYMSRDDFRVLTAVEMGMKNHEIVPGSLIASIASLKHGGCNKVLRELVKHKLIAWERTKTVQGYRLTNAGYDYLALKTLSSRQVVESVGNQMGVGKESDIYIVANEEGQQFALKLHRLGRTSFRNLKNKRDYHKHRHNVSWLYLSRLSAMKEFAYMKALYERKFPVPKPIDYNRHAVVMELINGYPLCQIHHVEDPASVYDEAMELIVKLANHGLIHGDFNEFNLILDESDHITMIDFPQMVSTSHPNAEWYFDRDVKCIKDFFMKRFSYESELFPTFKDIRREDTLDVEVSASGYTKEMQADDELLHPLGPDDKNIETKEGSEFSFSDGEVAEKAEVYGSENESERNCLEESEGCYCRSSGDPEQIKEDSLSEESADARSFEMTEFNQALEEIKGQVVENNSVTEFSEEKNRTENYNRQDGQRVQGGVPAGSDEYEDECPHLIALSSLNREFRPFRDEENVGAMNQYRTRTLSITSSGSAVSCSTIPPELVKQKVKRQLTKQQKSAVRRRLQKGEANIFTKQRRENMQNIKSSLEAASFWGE
Tyrosine-protein kinase Fgr (Homo sapiens), sequence (P09769 2-529 limits assumed): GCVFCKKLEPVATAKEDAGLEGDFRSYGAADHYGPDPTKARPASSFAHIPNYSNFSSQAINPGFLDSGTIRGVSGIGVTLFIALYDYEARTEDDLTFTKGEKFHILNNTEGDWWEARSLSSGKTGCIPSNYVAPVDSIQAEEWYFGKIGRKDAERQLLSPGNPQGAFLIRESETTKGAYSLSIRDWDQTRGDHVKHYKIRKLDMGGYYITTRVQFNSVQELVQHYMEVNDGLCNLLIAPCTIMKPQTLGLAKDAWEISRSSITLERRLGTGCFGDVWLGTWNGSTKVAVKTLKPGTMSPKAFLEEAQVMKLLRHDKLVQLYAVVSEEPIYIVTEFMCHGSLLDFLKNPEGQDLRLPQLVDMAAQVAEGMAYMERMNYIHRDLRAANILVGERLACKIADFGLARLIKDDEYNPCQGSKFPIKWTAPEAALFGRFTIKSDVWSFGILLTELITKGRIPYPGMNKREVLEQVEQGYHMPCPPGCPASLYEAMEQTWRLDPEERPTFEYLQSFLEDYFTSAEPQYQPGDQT
Mast/stem cell growth factor receptor Kit (Homo sapiens), sequence (P10721 whole entry): as the sequence (P10721 whole entry D816V) above, with V816D counted along it

| SMILES | residual activity [1] [%] | residual activity [2] [%] | residual activity [3] [%] | residual activity [4] [%] | residual activity [5] [%] | residual activity [6] [%] | residual activity [7] [%] | residual activity [8] [%] | residual activity [9] [%] | residual activity [10] [%] | residual activity [11] [%] | inhibition [12] [%] | residual activity [13] [%] | residual activity [14] [%] | residual activity [15] [%] | residual activity [16] [%] | residual activity [17] [%] | residual activity [18] [%] | residual activity [19] [%] | residual activity [20] [%] | further results |
| --- | --- | --- | --- | --- | --- | --- | --- | --- | --- | --- | --- | --- | --- | --- | --- | --- | --- | --- | --- | --- | --- |
| CCc1ccccc1C(=O)Nc1n[nH]c2c(C)c(F)c(C3C(C#N)=C(C)N(C)C(C)=C3C#N)cc12 [BAY-3827] | 100 | 100 | 100 | 78 | 100 | 100 | 25 | 100 | 100 | 88 | 90 | 16.1 | 51 | 84 | 55 | 82 | 92 | 73 | 93 | 100 | residual activity [21]: 90%; residual activity [22]: 75%; residual activity [23]: 84%; residual activity [24]: 89%; residual activity [25]: 98%; residual activity [26]: 61% |
| CC1=C(C#N)C(c2ccc3c(c2)c(NC(=O)c2ccccc2C)nn3C)C(C#N)=C(C)N1 [BAY-974] | 86 | 90 | 99 | 98 | 100 | 93 | 27 | 87 | 100 | 66 | 82 | 21.6 | 92 | 100 | 85 | 66 | 83 | 86 | 65 | 100 | residual activity [21]: 100%; residual activity [22]: 69%; residual activity [23]: 100%; residual activity [24]: 87%; residual activity [25]: 100%; residual activity [26]: 87% |
